In brackets after ≈: the same amount, converted by molar mass.
How the values were obtained:
Leishmania donovani [1] = assay: Antileishmanial activity against promastigote form of Leishmania donovani NHOM/IN/80/DD8 assessed as decrease in cell viability after 72 hrs by MTT assay; format: functional, organism-based; details: NHOM/IN/80/DD8, 72 h
[2] = Antioxidant activity assessed as DPPH radical scavenging activity after 20 to 30 mins; format: functional
Leishmania donovani [3] = assay: Potency index, ratio of sodium stibogluconate IC50 to compound IC50 for promastigote form of Leishmania donovani NHOM/IN/80/DD8; format: functional

| IC50 [2] [µg/mL] | Structure (SMILES) | IC50 (Leishmania donovani [1]) [µg/mL] | Ratio IC50 (Leishmania donovani [3]) |
| --- | --- | --- | --- |
| 75.86 (≈ 170 µM) | CCCCc1oc2ccc(/N=C/c3ccc(Cl)cc3)cc2c1C(=O)c1ccc(OC)cc1 | 372 (≈ 834 µM) | – |
| 34.16 (≈ 74.8 µM) | CCCCc1oc2ccc(/N=C/c3cccc([N+](=O)[O-])c3)cc2c1C(=O)c1ccc(OC)cc1 | 103 (≈ 226 µM) | – |
| 20.53 (≈ 43.5 µM) | CCCCc1oc2ccc(/N=C/c3ccc(OC)cc3OC)cc2c1C(=O)c1ccc(OC)cc1 | 52 (≈ 110 µM) | – |
| 34.24 (≈ 83.2 µM) | CCCCc1oc2ccc(/N=C/c3ccccc3)cc2c1C(=O)c1ccc(OC)cc1 | 279 (≈ 677 µM) | 2 |
| 100.3 (≈ 234 µM) | CCCCc1oc2ccc(/N=C/c3ccc(F)cc3)cc2c1C(=O)c1ccc(OC)cc1 | 77.4 (≈ 180 µM) | – |
| 14.78 (≈ 30.4 µM) | CCCCc1oc2ccc(/N=C/c3ccc(OCC)c(OC)c3)cc2c1C(=O)c1ccc(OC)cc1 | 238 (≈ 491 µM) | – |
| 2.44 (≈ 5.08 µM) | CCCCc1oc2ccc(/N=C/c3ccc(Cl)cc3Cl)cc2c1C(=O)c1ccc(OC)cc1 | 124 (≈ 258 µM) | – |
| 99.43 (≈ 233 µM) | CCCCc1oc2ccc(/N=C/c3ccccc3O)cc2c1C(=O)c1ccc(OC)cc1 | 115 (≈ 268 µM) | 4 |
| 22.79 (≈ 53.3 µM) | CCCCc1oc2ccc(/N=C/c3ccc(O)cc3)cc2c1C(=O)c1ccc(OC)cc1 | 144 (≈ 337 µM) | 4 |
| 3.69 (≈ 8.39 µM) | CCCCc1oc2ccc(/N=C/c3ccc(CC)cc3)cc2c1C(=O)c1ccc(OC)cc1 | 59.3 (≈ 135 µM) | – |
| 27.16 (≈ 62.2 µM) | CCCCc1oc2ccc(/N=C/c3ccc(C#N)cc3)cc2c1C(=O)c1ccc(OC)cc1 | 101 (≈ 231 µM) | – |
| 7.55 (≈ 17 µM) | CCCCc1oc2ccc(/N=C/c3ccc(O)cc3O)cc2c1C(=O)c1ccc(OC)cc1 | 109 (≈ 246 µM) | 4 |
| 53.11 (≈ 116 µM) | CCCCc1oc2ccc(/N=C/c3ccc([N+](=O)[O-])cc3)cc2c1C(=O)c1ccc(OC)cc1 | 56 (≈ 123 µM) | – |
| 3.31 (≈ 18.8 µM) | O=C1O[C@H]([C@@H](O)CO)C(O)=C1O [ASCORBIC ACID] | – | – |
| – | N=C(N)c1ccc(OCCCCCOc2ccc(C(=N)N)cc2)cc1 [PENTAMIDINE] | 16.1 (≈ 47.4 µM) | – |
